Assay results reported in patent publication US12076307B2, “Compositions for prevention or treatment of acute radiation syndrome and other radiation exposure” (priority 2017, dated 2024).
Read-outs that look alike come from different tables or passages of the source.

What was measured:
[1] = tested on: Balb/c mice, whole body radiation 1 Gy; experiment: Blood immune cell counts (CBC) in radiation-induced leukopenia (RIL) ARS model; type: in vivo, mouse
Source text: Balb/c mice (9-week-old male) were purchased from Koatech (Pyeongtaek, Republic of Korea) and maintained in a specific pathogen-free (SPF) environment to establish an animal model of acute radiation syndrome. In order to evaluate the effect of PLAG on the reduction of immune cells by radiation, the following three groups were constructed for this study. (1) normal control group (positive control); (2) Radiotherapy-Radiation induced leukopenia (RIL) group (negative control group); And (3) RIL+PLAG treated group (experimental group).
Specifically, mice treated with RIL and […] were exposed to whole body radiation at 1 Gy (100 rad=1.06 min). For the RIL+PLAG treatment group, 50 mg/kg/day of PLAG (Enzychem Lifesciences Co., Daejeon, Republic of Korea) was orally administered daily for 4 consecutive days after irradiation. The normal controls were not exposed to radiation. On the 5th day after irradiation, blood samples were collected, and then Complete Blood Count (CBC) was measured using a Mindray BC-5300 auto hematology analyzer (Shenzhen Mindray Bio-medical Electronics, China) so that the number of blood leukocytes, neutrophils and lymphocytes in blood could be counted (FIG. 1).

[2] = tested on: CXCL8; experiment: CXCL8 release in HaCaT cells treated with CM or rhHMGB1; type: cell-based, human
Protocol: An additional experiment was tested for assessing whether EC-18 treatment leads to early termination of the RIPK1/3-MLKL-mediated downstream necroptosis pathway. This was performed by using DAMP-containing conditioned media (CM) harvested from HaCaT cells, irradiated for 48 hrs, and analyzed after 2 or 72 hrs of EC-18 treatment. […] To further confirm that DAMPs in CM contribute to the activation of a necroptosis signaling pathway in a paracrine manner, recombinant human HMGB1 (rhHMGB1) was treated directly to the normal HaCaT cells. The rhHMGB1 elevated the phosphorylation of RIPK1/3 and MLKL after 2 hrs and subsequently released HMGB1 and HSP90 (FIGS. 35C-35D). To evaluate whether EC-18 mitigates the activation of RIPK1/3 and MLKL, 10 or 100 μg/mL of EC-18 was treated before the addition of CM or rhHMGB1. As a result, EC-18 lowered the phosphorylation of RIPK/3 and MLKL in both CM- and rhHMGB1-treated cells after 2 hrs. Release of HMGB1 and Hsp90 was also subsided by EC-18 after 72 hrs of post addition of CM or rhHMGB1 to the cells (FIGS. 35A-35D). TLR4-induced necroptosis signaling pathway caused by DAMP release produces cytokines, such as CXCL8, a chemotactic cytokine for neutrophils. As CXCL8 increases upon tissue damage, it was measured in cells treated with CM or rhHMGB1 as a measure of inflammation. CXCL8 of CM from cells treated with chemo and radiotherapy was used for this evaluation. […] Moreover, rhHMGB1 increased the production of CXCL8, modulated by EC-18.

[3] = tested on: Guinea pig; experiment: Antigenicity test; type: in vivo; details: Oral; 2 weeks; 500, 2000 mg/kg; 2000 mg/kg + FCA
Source text: (§1) Various toxicology studies have been performed. All studies were GLP-compliant unless otherwise noted.

[4] = Whole-body autoradiography of rats after single oral [14C]EC-18; type: in vivo, rat; details: 200 mg/kg oral
Protocol: Male albino rats in fasted conditions were administered a single dose of [^14C]EC-18 (oral dose of 200 mg/kg, vehicle: olive oil). The distribution and levels of radioactivity in the body were observed by whole-body autoradiography performed at 0.25, 1, 8, and 24 hrs after [^14C]EC-18 administration.

[5] = Plasma and lymphatic concentrations of EC-18 in beagle dogs after single administration; type: in vivo, dog; details: for Tmax / AUC(0-t) / half-life / Cmax: male, beagle, dog; for Tmax: po
Protocol: A single dose of EC-18 (1000, 2000, 4000 mg/kg by mouth or 100 mg/kg IV) was administered to male beagle dogs in fed condition and the concentration of EC-18 in plasma and lymph was measured using UHPLC-MS/MS.

[6] = Embryo-fetal developmental toxicity study, NZW rabbit; type: in vivo; details: NZW, rabbit, in vivo; definitive study; Oral 13 days
Source text: as §1

[7] = tested on: NZW rabbit; experiment: as above; type: in vivo; details: Oral 13 days
Source text: as §1

[8] = RIL + PLAG 50 mg/kg/day oral 4 days, day 5, n=3

Q: With `CCCCC/C=C\C/C=C\CCCCCCCC(=O)OC(COC(C)=O)COC(=O)CCCCCCCCCCCCCCC` (centres unmarked) [EC-18, 1-palmitoyl-2-linoleoyl-3-acetylglycerol] as the compound, how does the “increase of blood leukocyte count vs RIL group” value ([1]; PLAG 50 mg/kg/day, day 5) read?
A: The value was 63%.

Q: What about the “increase of blood lymphocyte count vs RIL group” value ([1]; PLAG 50 mg/kg/day, day 5) of the same compound?
A: The value was 85%.

Q: What about the “increase of blood neutrophil count vs RIL group” value ([1]; PLAG 50 mg/kg/day, day 5) of the same compound?
A: The value was 34%.

Q: What about the Lymphocyte [1, 8] of the same compound?
A: The Lymphocyte was 2.2±0.42 10^3/μL.

Q: And the Neutrophils [1, 8]?
A: Its Neutrophils is 1.17±0.35 10^3/μL.

Q: And the White blood cells [1, 8]?
A: Its White blood cells is 3.56±0.84 10^3/μL.

Q: And the CXCL8 level ([2]; CM-treated cells)?
A: The CXCL8 level was “decreased in a dose-dependent manner”.

Q: And the CXCL8 production ([2]; rhHMGB1-treated cells)?
A: Its CXCL8 production is “modulated”.

Q: What about the “anaphylaxis reaction / antigenicity” value [3] of the same compound?
A: Its value is “No anaphylaxis reaction”.

Q: And the time to elimination [4]?
A: The time to elimination was ≤ 24 h.

Q: And the F ([5]; 1000 mg/kg po, Plasma)?
A: The F was 7.8%.

Q: And the F ([5]; 2000 mg/kg po, Plasma)?
A: Its F is 6.3%.

Q: What about the F ([5]; 4000 mg/kg po, Plasma) of the same compound?
A: Its F is 23.6%.

Q: What about the Tmax ([5]; lymph, 1000 mg/kg, 1000 mg/kg po, Lymph, read-out: Tmax) of the same compound?
A: Its Tmax is 3.3 ± 0.9 h.

Q: And the Tmax ([5]; lymph, 1000 mg/kg, 1000 mg/kg po, lymph, read-out: median Tmax)?
A: Its Tmax is 4 h.

Q: And the Tmax ([5]; lymph, 2000 mg/kg, 2000 mg/kg po, Lymph, read-out: Tmax)?
A: Its Tmax is 3.3 ± 0.9 h.

Q: And the Tmax ([5]; lymph, 2000 mg/kg, 2000 mg/kg po, lymph, read-out: median Tmax)?
A: Its Tmax is 4 h.

Q: And the Tmax ([5]; lymph, 4000 mg/kg, 4000 mg/kg po, Lymph, read-out: Tmax)?
A: The Tmax was 3.3 ± 1.9 h.

Q: And the Tmax ([5]; lymph, 4000 mg/kg, 4000 mg/kg po, lymph, read-out: median Tmax)?
A: Its Tmax is 2 h.

Q: And the Tmax ([5]; plasma, 1000 mg/kg, 1000 mg/kg po, Plasma, read-out: Tmax)?
A: Its Tmax is 1.3 h.

Q: And the Tmax ([5]; plasma, 2000 mg/kg, 2000 mg/kg po, Plasma, read-out: Tmax)?
A: The Tmax was 1.3 h.

Q: What about the Tmax ([5]; plasma, 4000 mg/kg, 4000 mg/kg po, Plasma, read-out: Tmax) of the same compound?
A: Its Tmax is 6.7 h.

Q: And the AUC(0-t) ([5]; 100 mg/kg IV, Plasma)?
A: The AUC(0-t) was 7540 ± 1860 ng·h/mL.

Q: What about the half-life ([5]; 100 mg/kg IV, Plasma) of the same compound?
A: Its half-life is 13.9 ± 2.3 h.

Q: What about the AUC(0-t) ([5]; 1000 mg/kg po, Lymph) of the same compound?
A: The AUC(0-t) was 118000 ± 16700 ng·h/mL.

Q: What about the Cmax ([5]; 1000 mg/kg po, Lymph) of the same compound?
A: Its Cmax is 35100 ± 5160 ng/mL.

Q: And the AUC(0-t) ([5]; 1000 mg/kg po, Plasma)?
A: Its AUC(0-t) is 5800 ± 2810 ng·h/mL.

Q: What about the Cmax ([5]; 1000 mg/kg po, Plasma) of the same compound?
A: The Cmax was 1750 ± 710 ng/mL.

Q: And the AUC(0-t) ([5]; 2000 mg/kg po, Lymph)?
A: Its AUC(0-t) is 389000 ± 125000 ng·h/mL.

Q: And the Cmax ([5]; 2000 mg/kg po, Lymph)?
A: Its Cmax is 40100 ± 8620 ng/mL.

Q: And the AUC(0-t) ([5]; 2000 mg/kg po, Plasma)?
A: Its AUC(0-t) is 9490 ± 3850 ng·h/mL.

Q: And the Cmax ([5]; 2000 mg/kg po, Plasma)?
A: The Cmax was 2110 ± 750 ng/mL.

Q: What about the AUC(0-t) ([5]; 4000 mg/kg po, Lymph) of the same compound?
A: The AUC(0-t) was 431000 ± 81300 ng·h/mL.

Q: And the Cmax ([5]; 4000 mg/kg po, Lymph)?
A: The Cmax was 46600 ± 1730 ng/mL.

Q: What about the half-life ([5]; 4000 mg/kg po, Lymph) of the same compound?
A: Its half-life is 3.3 ± 0.2 h.

Q: What about the AUC(0-t) ([5]; 4000 mg/kg po, Plasma) of the same compound?
A: Its AUC(0-t) is 71100 ± 31700 ng·h/mL.

Q: And the Cmax ([5]; 4000 mg/kg po, Plasma)?
A: Its Cmax is 6760 ± 3330 ng/mL.

Q: What about the NOAEL at 13 days [6] of the same compound?
A: Its NOAEL at 13 days is 500 mg/kg/day.

Q: What about the findings ([7]; DRF study, 0, 125, 250, 500 mg/kg) of the same compound?
A: Its findings is “No specific findings”.

Q: What about the mortality ([7]; DRF study, 250 mg/kg dose group, day 8 of pregnancy, attributed to loss of appetite before dosing) of the same compound?
A: Its mortality is “A single case of death”.

Q: And the mortality ([7]; definitive study, 0, 125, 250, 500 mg/kg)?
A: Its mortality is “No dead animals”.
